Measurements taken from US10710978B2, “STK4 inhibitors for treatment of hematologic malignancies” (Dana-Farber Cancer Institute, Inc., priority 2015, dated 2020).
Read-outs that look alike come from different tables or passages of the source.

Experiments:
Test in all cases: KiNativ assay
Format in all cases: binding
ROCK1, ROCK2 = details: H929 live cell
Summary of the method: (§1)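 Live H929 cells, compound 10 μM, duplicate; KiNativ probe profiling; IC50 by MS.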

GPRK5 = GPRK5 (Homo sapiens (Human), UniProt P34947); details: H929 live cell
Summary of the method: (§2)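 KiNativ profiling in live H929 cells; single concentration 10 μM, n=2; IC50 from MS measurement.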

QSK = QSK (Homo sapiens (Human), UniProt Q9Y2K2); details: H929 live cell
Summary of the method: as §1

PDK1 = PDK1 (Homo sapiens (Human), UniProt O15530); details: H929 live cell
Summary of the method: as §1

CK1d, CK1e = details: H929 live cell
Summary of the method: as §2

MAP2K2 = MAP2K2 (Homo sapiens (Human), UniProt P36507); details: H929 live cell
Summary of the method: as §2

KHS2 = KHS2 (Homo sapiens (Human), UniProt Q8IVH8); details: H929 live cell
Summary of the method: as §2

SGK2 = SGK2 (Homo sapiens (Human), UniProt Q9HBY8); details: H929 live cell
Summary of the method: as §1

CK1g1 = CK1g1 (Homo sapiens (Human), UniProt Q9HCP0); details: H929 live cell
Summary of the method: as §2

RIPK3 = RIPK3 (Homo sapiens (Human), UniProt Q9Y572); details: H929 live cell, read-out: inhibition (10 μM)
Summary of the method: as §1

CDK9 = CDK9 (Homo sapiens (Human), UniProt P50750); details: H929 live cell
Summary of the method: as §1

GPRK5, sequence (P34947 whole entry): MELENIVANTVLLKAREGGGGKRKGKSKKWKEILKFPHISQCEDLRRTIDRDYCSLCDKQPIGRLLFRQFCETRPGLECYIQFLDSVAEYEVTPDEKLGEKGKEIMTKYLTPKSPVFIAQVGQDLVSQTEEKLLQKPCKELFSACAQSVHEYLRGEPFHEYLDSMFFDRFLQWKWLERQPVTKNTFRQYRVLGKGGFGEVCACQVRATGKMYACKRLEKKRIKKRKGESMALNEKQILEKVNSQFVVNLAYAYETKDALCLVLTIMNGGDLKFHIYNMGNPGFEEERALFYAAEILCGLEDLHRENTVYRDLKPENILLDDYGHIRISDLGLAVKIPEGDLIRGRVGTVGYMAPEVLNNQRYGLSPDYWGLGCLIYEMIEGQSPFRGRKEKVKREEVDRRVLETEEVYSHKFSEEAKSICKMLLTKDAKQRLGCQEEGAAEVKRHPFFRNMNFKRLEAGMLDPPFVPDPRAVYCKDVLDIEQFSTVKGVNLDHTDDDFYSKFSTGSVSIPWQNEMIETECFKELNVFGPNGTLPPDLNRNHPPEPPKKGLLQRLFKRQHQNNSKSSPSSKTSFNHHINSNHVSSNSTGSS
MAP2K2, sequence (P36507 whole entry): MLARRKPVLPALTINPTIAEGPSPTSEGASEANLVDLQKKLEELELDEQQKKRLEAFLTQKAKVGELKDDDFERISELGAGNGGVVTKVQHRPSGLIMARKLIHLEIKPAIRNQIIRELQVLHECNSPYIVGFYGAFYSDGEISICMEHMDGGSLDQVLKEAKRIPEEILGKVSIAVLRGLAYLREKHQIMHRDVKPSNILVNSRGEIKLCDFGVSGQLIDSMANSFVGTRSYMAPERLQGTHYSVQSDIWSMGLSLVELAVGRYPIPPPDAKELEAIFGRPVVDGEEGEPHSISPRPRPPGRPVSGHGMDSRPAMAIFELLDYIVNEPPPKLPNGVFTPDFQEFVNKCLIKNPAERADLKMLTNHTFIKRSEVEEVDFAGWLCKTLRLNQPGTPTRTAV
KHS2, sequence (Q8IVH8 whole entry): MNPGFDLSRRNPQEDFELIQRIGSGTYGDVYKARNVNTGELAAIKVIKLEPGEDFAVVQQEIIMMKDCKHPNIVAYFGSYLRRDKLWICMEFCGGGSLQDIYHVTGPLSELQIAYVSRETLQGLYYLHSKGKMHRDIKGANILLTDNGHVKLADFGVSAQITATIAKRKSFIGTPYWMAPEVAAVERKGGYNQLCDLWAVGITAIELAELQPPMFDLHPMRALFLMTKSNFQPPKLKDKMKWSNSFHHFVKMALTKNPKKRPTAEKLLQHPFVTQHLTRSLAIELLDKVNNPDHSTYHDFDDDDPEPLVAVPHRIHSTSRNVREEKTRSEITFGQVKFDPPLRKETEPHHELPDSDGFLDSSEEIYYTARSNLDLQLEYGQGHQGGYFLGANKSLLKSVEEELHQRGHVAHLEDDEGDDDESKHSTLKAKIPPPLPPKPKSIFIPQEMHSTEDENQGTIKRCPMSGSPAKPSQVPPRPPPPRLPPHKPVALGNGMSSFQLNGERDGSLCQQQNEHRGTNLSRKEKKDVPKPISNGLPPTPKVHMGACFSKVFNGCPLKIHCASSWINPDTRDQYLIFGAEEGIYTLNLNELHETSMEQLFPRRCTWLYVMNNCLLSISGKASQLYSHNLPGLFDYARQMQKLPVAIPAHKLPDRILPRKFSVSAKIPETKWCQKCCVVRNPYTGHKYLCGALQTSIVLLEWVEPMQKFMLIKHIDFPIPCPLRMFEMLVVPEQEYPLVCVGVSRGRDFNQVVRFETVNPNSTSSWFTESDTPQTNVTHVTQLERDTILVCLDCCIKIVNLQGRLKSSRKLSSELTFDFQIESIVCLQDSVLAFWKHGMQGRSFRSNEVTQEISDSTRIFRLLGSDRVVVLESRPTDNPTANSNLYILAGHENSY
CDK9, sequence (P50750 whole entry): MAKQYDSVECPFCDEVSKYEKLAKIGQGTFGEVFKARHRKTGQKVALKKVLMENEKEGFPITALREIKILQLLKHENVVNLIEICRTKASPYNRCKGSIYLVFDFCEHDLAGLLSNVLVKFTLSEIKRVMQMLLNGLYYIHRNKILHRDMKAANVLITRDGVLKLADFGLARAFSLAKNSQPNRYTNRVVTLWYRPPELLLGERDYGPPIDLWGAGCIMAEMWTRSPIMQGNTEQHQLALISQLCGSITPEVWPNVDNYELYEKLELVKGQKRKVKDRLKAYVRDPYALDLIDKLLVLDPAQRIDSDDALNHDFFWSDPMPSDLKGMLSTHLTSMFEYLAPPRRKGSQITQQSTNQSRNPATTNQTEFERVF
CDK9, sequence (O60563 whole entry partner): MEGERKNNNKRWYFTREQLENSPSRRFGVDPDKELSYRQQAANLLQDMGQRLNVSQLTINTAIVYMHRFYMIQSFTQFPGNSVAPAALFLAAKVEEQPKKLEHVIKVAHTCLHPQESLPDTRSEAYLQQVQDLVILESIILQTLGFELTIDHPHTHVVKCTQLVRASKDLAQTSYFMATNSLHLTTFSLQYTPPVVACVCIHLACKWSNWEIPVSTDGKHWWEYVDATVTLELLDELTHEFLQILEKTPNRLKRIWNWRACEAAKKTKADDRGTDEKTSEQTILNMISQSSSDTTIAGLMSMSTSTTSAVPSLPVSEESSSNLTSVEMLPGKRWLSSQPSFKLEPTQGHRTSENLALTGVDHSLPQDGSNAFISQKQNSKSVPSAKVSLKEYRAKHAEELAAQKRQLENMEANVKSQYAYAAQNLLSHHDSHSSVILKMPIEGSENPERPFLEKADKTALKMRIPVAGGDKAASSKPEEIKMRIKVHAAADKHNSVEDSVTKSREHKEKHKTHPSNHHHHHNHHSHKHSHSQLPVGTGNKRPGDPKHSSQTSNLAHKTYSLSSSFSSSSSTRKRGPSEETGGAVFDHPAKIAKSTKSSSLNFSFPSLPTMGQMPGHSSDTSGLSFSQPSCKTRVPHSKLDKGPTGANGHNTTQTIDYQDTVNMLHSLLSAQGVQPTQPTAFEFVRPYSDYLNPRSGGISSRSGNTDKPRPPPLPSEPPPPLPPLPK
PDK1, sequence (O15530 whole entry): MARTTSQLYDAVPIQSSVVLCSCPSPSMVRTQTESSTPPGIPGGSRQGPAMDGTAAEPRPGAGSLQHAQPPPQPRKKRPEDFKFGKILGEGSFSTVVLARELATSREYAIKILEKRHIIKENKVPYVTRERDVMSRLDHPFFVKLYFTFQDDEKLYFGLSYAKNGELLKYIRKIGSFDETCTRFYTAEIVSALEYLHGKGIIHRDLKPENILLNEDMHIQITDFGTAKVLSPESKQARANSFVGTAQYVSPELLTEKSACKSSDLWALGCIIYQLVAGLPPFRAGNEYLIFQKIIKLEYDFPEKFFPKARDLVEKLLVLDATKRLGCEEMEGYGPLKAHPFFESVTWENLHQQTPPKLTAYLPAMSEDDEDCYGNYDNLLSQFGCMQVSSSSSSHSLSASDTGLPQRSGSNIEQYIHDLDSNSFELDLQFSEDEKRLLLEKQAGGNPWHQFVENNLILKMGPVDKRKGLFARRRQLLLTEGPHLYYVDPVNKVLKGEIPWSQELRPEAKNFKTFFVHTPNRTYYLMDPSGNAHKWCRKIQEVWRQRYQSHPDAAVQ
SGK2, sequence (Q9HBY8 whole entry): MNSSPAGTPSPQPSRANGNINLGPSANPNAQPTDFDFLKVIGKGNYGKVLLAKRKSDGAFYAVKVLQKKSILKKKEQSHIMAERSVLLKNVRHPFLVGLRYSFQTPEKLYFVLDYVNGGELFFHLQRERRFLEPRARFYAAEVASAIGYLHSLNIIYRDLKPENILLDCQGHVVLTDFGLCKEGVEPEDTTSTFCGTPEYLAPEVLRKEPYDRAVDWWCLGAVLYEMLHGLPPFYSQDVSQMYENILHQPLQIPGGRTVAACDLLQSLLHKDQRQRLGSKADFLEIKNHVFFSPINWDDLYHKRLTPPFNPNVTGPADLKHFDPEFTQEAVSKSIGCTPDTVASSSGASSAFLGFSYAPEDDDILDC
CK1g1, sequence (Q9HCP0 whole entry): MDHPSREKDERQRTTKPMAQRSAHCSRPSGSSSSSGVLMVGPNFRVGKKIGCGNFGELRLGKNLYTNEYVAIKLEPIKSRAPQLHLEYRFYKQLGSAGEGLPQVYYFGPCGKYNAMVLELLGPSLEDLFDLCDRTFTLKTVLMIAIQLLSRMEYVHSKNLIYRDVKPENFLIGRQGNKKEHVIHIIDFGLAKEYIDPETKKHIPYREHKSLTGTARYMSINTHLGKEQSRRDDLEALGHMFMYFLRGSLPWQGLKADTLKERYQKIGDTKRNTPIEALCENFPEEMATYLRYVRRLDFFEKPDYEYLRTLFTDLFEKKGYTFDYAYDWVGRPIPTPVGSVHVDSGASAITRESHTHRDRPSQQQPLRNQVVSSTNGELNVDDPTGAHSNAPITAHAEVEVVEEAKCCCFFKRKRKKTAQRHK
RIPK3, sequence (Q9Y572 whole entry): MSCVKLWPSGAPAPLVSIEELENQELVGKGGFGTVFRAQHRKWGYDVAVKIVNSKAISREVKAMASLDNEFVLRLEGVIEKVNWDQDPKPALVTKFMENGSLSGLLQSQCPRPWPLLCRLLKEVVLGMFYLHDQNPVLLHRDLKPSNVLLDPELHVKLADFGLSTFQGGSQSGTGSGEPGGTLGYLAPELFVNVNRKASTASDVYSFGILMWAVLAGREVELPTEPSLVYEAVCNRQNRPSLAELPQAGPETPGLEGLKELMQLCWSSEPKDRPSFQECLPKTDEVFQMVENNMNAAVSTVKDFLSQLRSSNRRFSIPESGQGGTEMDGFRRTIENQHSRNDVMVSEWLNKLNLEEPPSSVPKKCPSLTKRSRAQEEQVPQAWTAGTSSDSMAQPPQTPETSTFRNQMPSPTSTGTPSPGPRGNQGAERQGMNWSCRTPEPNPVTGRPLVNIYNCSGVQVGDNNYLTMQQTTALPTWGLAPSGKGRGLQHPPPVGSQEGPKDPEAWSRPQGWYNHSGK

For `CN(C1CC1)S(=O)(=O)c1ccc(-c2cnc(N)c(-c3ccc4c(c3)CCNC4=O)c2)c(F)c1` [Compound I-28, 4-(6-amino-5-(1-oxo-1,2,3,4-tetrahydroisoquinolin-6-yl)pyridin-3-yl)-N-cyclopropyl-3-fluoro-N-methylbenzenesulfonamide], the “% inhibition (range)” value (ROCK1, ROCK2; 10 μM) was 0.0%, the “inhibition (10 μM)” value (ROCK1, ROCK2) was 20.8% and the inhibition at 10 µM (GPRK5; read-out: % inhibition (range)) was 0%. For the same compound, the inhibition at 10 µM (GPRK5; read-out: inhibition (10 μM)) was 10.7%, the inhibition at 10 µM (QSK; read-out: % inhibition (range)) was 0% and the inhibition at 10 µM (QSK; read-out: inhibition (10 μM)) was 30.1%. For the same compound, the inhibition at 10 µM (PDK1; read-out: % inhibition (range)) was 0%, the inhibition at 10 µM (PDK1; read-out: inhibition (10 μM)) was 5.9% and the “% inhibition (range)” value (CK1d, CK1e; 10 μM) was 50-75%. The “inhibition (10 μM)” value (CK1d, CK1e) was 68.2%, the inhibition at 10 µM (MAP2K2; read-out: % inhibition (range)) was 0% and the inhibition at 10 µM (MAP2K2; read-out: inhibition (10 μM)) was -23.7%. The inhibition at 10 µM (KHS2; read-out: % inhibition (range)) was 50 to 75%, the inhibition at 10 µM (KHS2; read-out: inhibition (10 μM)) was 68.3% and the inhibition at 10 µM (SGK2; read-out: % inhibition (range)) was 0%. The inhibition at 10 µM (SGK2; read-out: inhibition (10 μM)) was -30.3%, the inhibition at 10 µM (CK1g1; read-out: % inhibition (range)) was 75 to 90% and the inhibition at 10 µM (CK1g1; read-out: inhibition (10 μM)) was over 85%. The inhibition at 10 µM (RIPK3) was -121%, the inhibition at 10 µM (CDK9; read-out: % inhibition (range)) was 0% and the inhibition at 10 µM (CDK9; read-out: inhibition (10 μM)) was 28.9%.
